pIC50: −log10 of the molar value. Like-named read-outs stand apart in the source and are kept apart here. Each block holds one molecule with its values, some of them ahead of it.
Legend:
recombinant human S1PR2 = recombinant human S1PR2 (Homo sapiens, UniProt O95136); assay: [32P]S1P competitive binding assay, S1PR2
recombinant human S1PR3 = recombinant human S1PR3 (Homo sapiens, UniProt Q99500); assay: [32P]S1P competitive binding assay, S1PR3
recombinant human S1PR1 = recombinant human S1PR1 (Homo sapiens, UniProt P21453); assay: [32P]S1P competitive binding assay, S1PR1; conditions: for fold decrease of S1PR1 binding potency compared to 10a: ratio of IC50 values versus 10a
Chain of recombinant human S1PR1 (P21453 whole entry): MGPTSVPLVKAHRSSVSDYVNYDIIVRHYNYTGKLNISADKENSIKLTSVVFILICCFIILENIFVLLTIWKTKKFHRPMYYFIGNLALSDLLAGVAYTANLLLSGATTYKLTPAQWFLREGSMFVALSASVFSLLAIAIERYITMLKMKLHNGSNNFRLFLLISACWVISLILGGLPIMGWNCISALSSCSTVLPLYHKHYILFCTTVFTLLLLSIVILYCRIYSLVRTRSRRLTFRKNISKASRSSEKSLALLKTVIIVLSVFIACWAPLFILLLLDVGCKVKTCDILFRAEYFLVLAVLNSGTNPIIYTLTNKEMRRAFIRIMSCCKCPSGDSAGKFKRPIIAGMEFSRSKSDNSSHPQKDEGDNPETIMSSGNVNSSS

recombinant human S1PR4 = target: T1, recombinant human S1PR4 (Homo sapiens, UniProt O95977); assay: [32P]S1P competitive binding assay, S1PR4; conditions: read-out: IC50 S1PR4; competition against [32P]S1P, recombinant human S1PR4 membranes; mean ± SD
T1 sequence (O95977 1-384): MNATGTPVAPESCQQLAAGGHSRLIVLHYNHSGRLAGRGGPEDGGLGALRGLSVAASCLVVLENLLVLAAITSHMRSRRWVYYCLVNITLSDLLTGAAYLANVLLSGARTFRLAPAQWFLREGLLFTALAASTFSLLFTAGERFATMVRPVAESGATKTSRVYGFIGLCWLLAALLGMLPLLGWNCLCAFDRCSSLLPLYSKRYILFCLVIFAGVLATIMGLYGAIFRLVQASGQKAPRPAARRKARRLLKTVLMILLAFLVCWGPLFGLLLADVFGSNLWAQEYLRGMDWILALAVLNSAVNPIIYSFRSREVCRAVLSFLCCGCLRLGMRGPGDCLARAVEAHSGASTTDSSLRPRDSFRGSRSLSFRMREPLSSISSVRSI

recombinant human S1PR5 = recombinant human S1PR5 (Homo sapiens, UniProt Q9H228); assay: [32P]S1P competitive binding assay, S1PR5; conditions: read-out: IC50 S1PR5; competition against [32P]S1P, recombinant human S1PR5 membranes; mean ± SD
Chain of recombinant human S1PR5 (Q9H228 whole entry): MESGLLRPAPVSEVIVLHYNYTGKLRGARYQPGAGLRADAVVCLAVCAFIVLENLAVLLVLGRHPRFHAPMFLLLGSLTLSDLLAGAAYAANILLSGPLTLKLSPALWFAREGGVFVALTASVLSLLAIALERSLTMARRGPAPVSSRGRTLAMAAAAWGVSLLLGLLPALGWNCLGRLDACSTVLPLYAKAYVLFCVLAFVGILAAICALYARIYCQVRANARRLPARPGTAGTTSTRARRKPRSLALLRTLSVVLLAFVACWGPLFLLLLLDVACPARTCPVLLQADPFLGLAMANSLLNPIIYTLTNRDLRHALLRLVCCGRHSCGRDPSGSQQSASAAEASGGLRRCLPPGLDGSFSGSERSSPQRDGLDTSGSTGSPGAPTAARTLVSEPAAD

[1] = read-out: IC50 S1PR1, competition against [32P]S1P, cell membranes expressing recombinant human S1PR1, mean ± SD, at least 3 independent experiments in duplicate

Chain of recombinant human S1PR2 (O95136 whole entry): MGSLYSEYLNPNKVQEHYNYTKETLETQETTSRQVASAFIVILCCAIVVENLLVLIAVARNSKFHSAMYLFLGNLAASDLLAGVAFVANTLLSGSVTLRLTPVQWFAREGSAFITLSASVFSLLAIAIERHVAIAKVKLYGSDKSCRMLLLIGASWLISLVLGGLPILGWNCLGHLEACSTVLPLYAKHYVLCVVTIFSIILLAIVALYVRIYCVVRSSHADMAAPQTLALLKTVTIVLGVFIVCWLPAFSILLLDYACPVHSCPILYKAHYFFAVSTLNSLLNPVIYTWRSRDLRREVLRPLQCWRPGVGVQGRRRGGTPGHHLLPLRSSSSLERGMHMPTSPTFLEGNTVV
Chain of recombinant human S1PR3 (Q99500 whole entry): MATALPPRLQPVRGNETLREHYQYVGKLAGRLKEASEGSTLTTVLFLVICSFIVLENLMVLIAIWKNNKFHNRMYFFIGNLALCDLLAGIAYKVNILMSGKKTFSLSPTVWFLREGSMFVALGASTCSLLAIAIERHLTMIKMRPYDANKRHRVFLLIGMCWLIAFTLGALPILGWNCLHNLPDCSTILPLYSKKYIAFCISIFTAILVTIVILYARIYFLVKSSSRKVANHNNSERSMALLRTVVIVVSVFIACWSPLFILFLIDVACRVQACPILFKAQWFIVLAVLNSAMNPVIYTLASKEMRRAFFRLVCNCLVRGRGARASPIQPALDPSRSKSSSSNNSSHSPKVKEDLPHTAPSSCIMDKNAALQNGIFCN

- pIC50 (recombinant human S1PR2): < 6.00
- pIC50 (recombinant human S1PR3): < 6.00
SMILES: OCCOCCOCc1ccc(-c2noc(-c3ccc(OCCF)c(C(F)(F)F)c3)n2)cc1 [17b, 2-(2-((4-(5-(4-(2-Fluoroethoxy)-3-(trifluoromethyl)phenyl)-1,2,4-oxadiazol-3-yl)benzyl)oxy)ethoxy)ethan-1-ol]

- pIC50 (recombinant human S1PR1): 7.25
SMILES: OCCOc1ccc(-c2noc(-c3ccc(OCCF)c(C(F)(F)F)c3)n2)cc1 [20a, 2-(4-(5-(4-(2-Fluoroethoxy)-3-(trifluoromethyl)phenyl)-1,2,4-oxadiazol-3-yl)phenoxy)ethan-1-ol]

- pIC50 (recombinant human S1PR1): 7.32
SMILES: OCCNCc1ccc(-c2noc(-c3ccc(OCCF)c(C(F)(F)F)c3)n2)cc1 [13d, 2-((4-(5-(4-(2-Fluoroethoxy)-3-(trifluoromethyl)phenyl)-1,2,4-oxadiazol-3-yl)benzyl)amino)ethan-1-ol]

- pIC50 (recombinant human S1PR1): 7.42
SMILES: CN(CCO)Cc1ccc(-c2noc(-c3ccc(OCCF)c(C(F)(F)F)c3)n2)cc1 [13b, 2-((4-(5-(4-(2-Fluoroethoxy)-3-(trifluoromethyl)phenyl)-1,2,4-oxadiazol-3-yl)benzyl)(methyl)amino)ethan-1-ol]

- fold decrease of S1PR1 binding potency compared to 10a (recombinant human S1PR1): approximately 16 fold
SMILES: OCCOCCOCCOCc1ccc(-c2noc(-c3ccc(OCCF)c(C(F)(F)F)c3)n2)cc1 [17c, 2-(2-(2-((4-(5-(4-(2-Fluoroethoxy)-3-(trifluoromethyl)phenyl)-1,2,4-oxadiazol-3-yl)benzyl)oxy)ethoxy)ethoxy)ethan-1-ol]

- pIC50 (recombinant human S1PR2): < 6.00
- pIC50 (recombinant human S1PR3): < 6.00
SMILES: OCCOCc1ccc(-c2noc(-c3ccc(OCCF)c(C(F)(F)F)c3)n2)cc1 [17a, 2-((4-(5-(4-(2-Fluoroethoxy)-3-(trifluoromethyl)phenyl)-1,2,4-oxadiazol-3-yl)benzyl)oxy)ethan-1-ol]

Second part, the molecule before the results:

SMILES: N#Cc1cc(-c2nc(-c3ccc(CO)cc3)no2)ccc1OCCF [10b, 2-(2-Fluoroethoxy)-5-(3-(4-(hydroxymethyl)phenyl)-1,2,4-oxadiazol-5-yl)benzonitrile]
- fold decrease of S1PR1 binding potency compared to 10a (recombinant human S1PR1): 2.3 fold

SMILES: OCc1ccc(-c2noc(-c3ccc(OCCF)cc3)n2)cc1 [10c, (4-(5-(4-(2-Fluoroethoxy)phenyl)-1,2,4-oxadiazol-3-yl)-phenyl)-methanol]
- pIC50 (recombinant human S1PR1): < 6.00

SMILES: OCc1ccc(-c2noc(-c3ccc(OCCF)c(C(F)(F)F)c3)n2)cc1 [10a, (4-(5-(4-(2-Fluoroethoxy)-3-(trifluoromethyl)phenyl)-1,2,4-oxadiazol-3-yl)phenyl)methanol]
- pIC50 (recombinant human S1PR2): < 6.00
- pIC50 (recombinant human S1PR3): < 6.00

SMILES: OCC(O)COCc1ccc(-c2noc(-c3ccc(OCCF)c(C(F)(F)F)c3)n2)cc1 (racemic) [(±)-20b, (±)-3-((4-(5-(4-(2-Fluoroethoxy)-3-(trifluoromethyl)phenyl)-1,2,4-oxadiazol-3-yl)benzyl)oxy)propane-1,2-diol]
- pIC50 (recombinant human S1PR1; [1]): 7.62

SMILES: OCC(O)c1ccc(-c2noc(-c3ccc(OCCF)c(C(F)(F)F)c3)n2)cc1 (racemic) [(±)-24, (±)-1-(4-(5-(4-(2-Fluoroethoxy)-3-(trifluoromethyl)phenyl)-1,2,4-oxadiazol-3-yl)phenyl)ethane-1,2-diol]
- pIC50 (recombinant human S1PR1; [1]): > 7.70
- pIC50 (recombinant human S1PR2; read-out: IC50 S1PR2, competition against [32P]S1P, recombinant human S1PR2 membranes, mean ± SD): < 6.00
- pIC50 (recombinant human S1PR3; read-out: IC50 S1PR3, competition against [32P]S1P, recombinant human S1PR3 membranes, mean ± SD): < 6.00
- pIC50 (recombinant human S1PR4): < 6.00
- pIC50 (recombinant human S1PR5): < 6.00

SMILES: CN(Cc1ccc(-c2noc(-c3ccc(OCCF)c(C(F)(F)F)c3)n2)cc1)CC(O)CO (racemic) [(±)-13a, (±)-3-((4-(5-(4-(2-Fluoroethoxy)-3-(trifluoromethyl)phenyl)-1,2,4-oxadiazol-3-yl)benzyl)(methyl)amino)propane-1,2-diol]
- pIC50 (recombinant human S1PR1; [1]): 7.40
